Reference: patent US5332736A, “Anti-convulsant aroyl aminoacylpyrroles” (Ortho Pharmaceutical Corporation, priority 1993, dated 1994)

Each compound was assayed on toxic extensor seizure (assay: maximal electroshock test (MES), mouse; block of the toxic extensor seizure (Swinyard 1952 method)). Conditions: ip.
Type: in vivo
Description: The compound of formula (I) are useful as anticonvulsant agents. The anticonvulsant activity of the subject compounds was determine using a standard "maximal electroshock test" (MES). In this test, activity is indicated by a block of the toxic extensor seizure, as described by Swinyard et al in J. Pharmacol,. Exptl. Therap. 106, 319 (1952). A more recent description of current anticonvulsant drug screening is given in Swinyard et al., in Epilepsia 19, 409 (1978).

Which ED50 does the source give for `CCN(CC)CC(=O)c1cc(C(=O)c2ccc(Cl)cc2)n(C)c1` [Example 9-4] here?
The ED50 was 14.4 mg/kg.

How did the ED50 turn out when `CCN(CC)CC(=O)c1cc(C(=O)c2ccc(OC)cc2)n(C)c1` [Example 9-29] was run?
The ED50 was 33 mg/kg.

Which ED50 does the source give for `Cn1cc(C(=O)CN2CCCCCC2)cc1C(=O)c1ccc(Cl)cc1` [Example 9-11] here?
Its ED50 is 27.5 mg/kg.

How did the ED50 turn out when `Cc1c(C(=O)CN2CCCC2)c(C)n(C)c1C(=O)c1ccc(Cl)cc1` [Example 9-5] was run?
Its ED50 is 15.2 mg/kg.

How did the ED50 turn out when `Cn1cc(C(=O)CN2CCCCC2)cc1C(=O)c1ccccc1Cl` [Example 9-10] was run?
The ED50 was 5.38 mg/kg.

How did the ED50 turn out when `CCN(CC)CC(=O)c1c(C)c(C(=O)c2ccc(Cl)cc2)n(C)c1C` [Example 9-32] was run?
The ED50 was 10.3 mg/kg.

For `Cn1cc(C(=O)CN2CCCC2)cc1C(=O)c1cccc(Cl)c1` [Example 9-24], which ED50 is on record?
The ED50 was 16.5 mg/kg.

Which ED50 does the source give for `Cn1cc(C(=O)CN2CCCC2)cc1C(=O)c1ccc(Cl)cc1` [Example 9-30] here?
Its ED50 is 49.1 mg/kg.

Which ED50 does the source give for `Cc1c(C(=O)CN2CCOCC2)c(C)n(C)c1C(=O)c1ccc(Cl)cc1` [Example 9-2] here?
The ED50 was 87.6 mg/kg.

`Cn1cc(C(=O)CN2CCCCC2)cc1C(=O)c1ccc(Cl)cc1` [Example 9-1] was tested. Which ED50 did it give?
The ED50 was 24.4 mg/kg.

Which ED50 does the source give for `O=C(CN1CCOCC1)c1c[nH]c(C(=O)c2ccc(Cl)cc2)c1` [Example 9-27] here?
The ED50 was 86.2 mg/kg.

Which ED50 does the source give for `Cn1cc(C(=O)CN2CCOCC2)cc1C(=O)c1cccc(Cl)c1` [Example 9-25] here?
The ED50 was 37.4 mg/kg.

`CCN(CC)CC(=O)c1c(C)c(C(=O)c2ccc(Cl)cc2Cl)n(C)c1C` [Example 9-34] was tested. Which ED50 did it give?
Its ED50 is 14.9 mg/kg.
